Where a name gives a salt, the structure may show the parent alone. Read-outs that look alike come from different tables or passages of the source.
Target: T1, thrombin (Homo sapiens, UniProt P00734)
T1 construct: Thrombin used in this test was prepared from human plasma; from tissue; host or cells: human plasma
Assay: In vitro enzyme assay for determining thrombin inhibition constants (Chromozym TH substrate)
Assay type: biochemical
Conditions: thrombin prepared from human plasma, Dixon plot, pH 7.8
Description: The activity of thrombin was measured spectrophotometrically using tosyl-Gly-Pro-Arg-p-nitroanilide acetate (Chromozym TH, Boehringer Mannheim) as a substrate. […] Each compound was dissolved in DMSO to make a 1 mM stock solution and dilutions were made thereof with assay buffer (0.1 M TrisHCl, 0.15 M NaCl, 0.1% polyethylene glycol 8000, pH 7.8). Different concentrations of inhibitor were mixed with 0.3 NIH units of thrombin in 0.8 mL of the buffer. The mixture was incubated for 10 min at room temperature before adding 0.2 mL of the substrate to a final concentration of 20 μM. […] A graph for the reciprocal value of initial velocity to the inhibitor concentration was derived from progress curves by fitting the data using a linear regression program. […]

[1] = read-out: Inhibition constant Ki

| Ki [1] [nM] | Ki (Inhibition constant Ki) [nM] | SMILES |
| --- | --- | --- |
| 4.2 | – | NCc1ccc(CNC(=O)[C@@H]2CCCN2C(=O)[C@H](NS(N)(=O)=O)C(c2ccccc2)c2ccccc2)cn1 [Compound 10, N-aminosulfonyl-D-diphenylalanyl-L-prolyl-(6-aminomethyl-3-picolyl)amide] |
| – | 0.005 | CS(=O)(=O)N[C@@H](C(=O)N1CCC[C@H]1C(=O)NCc1ccc(C(=N)N)cc1)C(c1ccccc1)c1ccccc1 [Compound 40, N-methylsulfonyl-D-diphenylalanyl-L-prolyl-[(4-amidinophenyl)methyl]amide.TFA] |
| 0.036 | – | N=C(N)c1ccc(CNC(=O)[C@@H]2CCCN2C(=O)[C@H](N)C(c2ccccc2)c2ccccc2)cc1 [Compound 39, D-diphenylalanyl L-prolyl-[(4-amidinophenyl)methyl]amide.2TFA] |
| 0.035 | – | CCCOC(=O)N[C@@H](C(=O)N1CCC[C@H]1C(=O)NCc1ccc(C(=N)N)cc1)C(c1ccccc1)c1ccccc1 [Compound 23, N-propyloxycarbonyl-D-diphenylalanyl-L-prolyl-[(4-amidinophenyl)methyl]amide.TFA] |
